Measurements as given in patent US9587266B2, “Mutant luciferases” (University of Massachusetts, priority 2011, dated 2017).
Where “and” joins values, the source holds several entries; their conditions need not be identical. Equal values may be shown once. Read-outs that look alike come from different tables or passages of the source.

Columns and labels:
I351A luciferase = biological target: T1, I351A luciferase (Photinus pyralis, UniProt P08659, I351A); test: Bioluminescence emission scan; format: biochemical
T1 construct: The full firefly (Photinus pyralis) luciferase gene was PCR amplified from pGL3 (Promega); GST (N, cleaved yes); made in house; host or cells: E. coli JM109
T1 sequence (P08659 whole entry I351A): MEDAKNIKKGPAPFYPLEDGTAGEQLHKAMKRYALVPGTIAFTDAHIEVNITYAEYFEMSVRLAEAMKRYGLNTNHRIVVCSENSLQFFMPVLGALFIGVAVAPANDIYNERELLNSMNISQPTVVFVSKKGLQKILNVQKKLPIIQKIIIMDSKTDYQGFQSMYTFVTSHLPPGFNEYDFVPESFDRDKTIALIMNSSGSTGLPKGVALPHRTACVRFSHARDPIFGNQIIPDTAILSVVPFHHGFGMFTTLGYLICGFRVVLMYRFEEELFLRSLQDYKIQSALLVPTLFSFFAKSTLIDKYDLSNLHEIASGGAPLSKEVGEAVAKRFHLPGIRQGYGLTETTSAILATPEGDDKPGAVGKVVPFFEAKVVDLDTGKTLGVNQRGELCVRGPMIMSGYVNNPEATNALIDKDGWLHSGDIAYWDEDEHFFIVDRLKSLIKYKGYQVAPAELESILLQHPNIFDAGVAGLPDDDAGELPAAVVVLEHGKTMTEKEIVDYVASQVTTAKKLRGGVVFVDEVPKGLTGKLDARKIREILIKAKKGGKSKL
Protocol: (§1) Purified mutant luciferases were used in bioluminescence emission and burst kinetics scans.
(§2) Luciferase was rapidly injected into a cuvette containing substrate, and the emission from 400-800 nm was recorded in a SPEX FluoroMax-3 fluorimeter with closed excitation slits.

S347A luciferase = biological target: T2, S347A luciferase (Photinus pyralis, UniProt P08659, S347A); test: Bioluminescence emission scan; format: biochemical
T2 construct: The full firefly (Photinus pyralis) luciferase gene was PCR amplified from pGL3 (Promega); GST (N, cleaved yes); made in house; host or cells: E. coli JM109
T2 sequence (P08659 whole entry S347A): as the sequence (P08659 whole entry I351A) above, with S347A, A351I counted along it
Protocol: as §1, §2

T251Q luciferase = biological target: T3, T251Q luciferase (Photinus pyralis, UniProt P08659, T251Q); test: Bioluminescence emission scan; format: biochemical
T3 construct: The full firefly (Photinus pyralis) luciferase gene was PCR amplified from pGL3 (Promega); GST (N, cleaved yes); made in house; host or cells: E. coli JM109
T3 sequence (P08659 whole entry T251Q): as the sequence (P08659 whole entry I351A) above, with T251Q, A351I counted along it
Protocol: as §1, §2

L286M luciferase = biological target: T4, L286M luciferase (Photinus pyralis, UniProt P08659, L286M); test: Bioluminescence emission scan; format: biochemical
T4 construct: The full firefly (Photinus pyralis) luciferase gene was PCR amplified from pGL3 (Promega); GST (N, cleaved yes); made in house; host or cells: E. coli JM109
T4 sequence (P08659 whole entry L286M): as the sequence (P08659 whole entry I351A) above, with L286M, A351I counted along it
Protocol: as §1, §2

F247L L286M luciferase = biological target: T5, F247L L286M luciferase (Photinus pyralis, UniProt P08659, F247L/L286M); test: Bioluminescence emission scan; format: biochemical
T5 construct: The full firefly (Photinus pyralis) luciferase gene was PCR amplified from pGL3 (Promega); GST (N, cleaved yes); made in house; host or cells: E. coli JM109
T5 sequence (P08659 whole entry F247L/L286M): as the sequence (P08659 whole entry I351A) above, with F247L, L286M, A351I counted along it
Protocol: as §1, §2

F247V luciferase = biological target: T6, F247V luciferase (Photinus pyralis, UniProt P08659, F247V); test: Bioluminescence emission scan; format: biochemical
T6 construct: The full firefly (Photinus pyralis) luciferase gene was PCR amplified from pGL3 (Promega); GST (N, cleaved yes); made in house; host or cells: E. coli JM109
T6 sequence (P08659 whole entry F247V): as the sequence (P08659 whole entry I351A) above, with F247V, A351I counted along it
Protocol: as §1, §2

R218K luciferase = biological target: T7, R218K luciferase (Photinus pyralis, UniProt P08659, R218K); test: Bioluminescence emission scan; format: biochemical
T7 construct: The full firefly (Photinus pyralis) luciferase gene was PCR amplified from pGL3 (Promega); GST (N, cleaved yes); made in house; host or cells: E. coli JM109
T7 sequence (P08659 whole entry R218K): as the sequence (P08659 whole entry I351A) above, with R218K, A351I counted along it
Protocol: as §1, §2

F247R luciferase = biological target: T8, F247R luciferase (Photinus pyralis, UniProt P08659, F247R); test: Bioluminescence emission scan; format: biochemical
T8 construct: The full firefly (Photinus pyralis) luciferase gene was PCR amplified from pGL3 (Promega); GST (N, cleaved yes); made in house; host or cells: E. coli JM109
T8 sequence (P08659 whole entry F247R): as the sequence (P08659 whole entry I351A) above, with F247R, A351I counted along it
Protocol: as §1, §2

L342A luciferase = biological target: T9, L342A luciferase (Photinus pyralis, UniProt P08659, L342A); test: Bioluminescence emission scan; format: biochemical
T9 construct: The full firefly (Photinus pyralis) luciferase gene was PCR amplified from pGL3 (Promega); GST (N, cleaved yes); made in house; host or cells: E. coli JM109
T9 sequence (P08659 whole entry L342A): as the sequence (P08659 whole entry I351A) above, with L342A, A351I counted along it
Protocol: as §1, §2

T251S L286M luciferase = biological target: T10, T251S L286M luciferase (Photinus pyralis, UniProt P08659, L286M/T251S); test: Bioluminescence emission scan; format: biochemical
T10 construct: The full firefly (Photinus pyralis) luciferase gene was PCR amplified from pGL3 (Promega); GST (N, cleaved yes); made in house; host or cells: E. coli JM109
T10 sequence (P08659 whole entry T251S/L286M): as the sequence (P08659 whole entry I351A) above, with T251S, L286M, A351I counted along it
Protocol: as §1, §2

T251S luciferase = biological target: T11, T251S luciferase (Photinus pyralis, UniProt P08659, T251S); test: Bioluminescence emission scan; format: biochemical
T11 construct: The full firefly (Photinus pyralis) luciferase gene was PCR amplified from pGL3 (Promega); GST (N, cleaved yes); made in house; host or cells: E. coli JM109
T11 sequence (P08659 whole entry T251S): as the sequence (P08659 whole entry I351A) above, with T251S, A351I counted along it
Protocol: as §1, §2

T251N luciferase = biological target: T12, T251N luciferase (Photinus pyralis, UniProt P08659, T251N); test: Bioluminescence emission scan; format: biochemical
T12 construct: The full firefly (Photinus pyralis) luciferase gene was PCR amplified from pGL3 (Promega); GST (N, cleaved yes); made in house; host or cells: E. coli JM109
T12 sequence (P08659 whole entry T251N): as the sequence (P08659 whole entry I351A) above, with T251N, A351I counted along it
Protocol: as §1, §2

L286Y luciferase = biological target: T13, L286Y luciferase (Photinus pyralis, UniProt P08659, L286Y); test: Bioluminescence emission scan; format: biochemical
T13 construct: The full firefly (Photinus pyralis) luciferase gene was PCR amplified from pGL3 (Promega); GST (N, cleaved yes); made in house; host or cells: E. coli JM109
T13 sequence (P08659 whole entry L286Y): as the sequence (P08659 whole entry I351A) above, with L286Y, A351I counted along it
Protocol: as §1, §2

F247A luciferase = biological target: T14, F247A luciferase (Photinus pyralis, UniProt P08659, F247A); test: Bioluminescence emission scan; format: biochemical
T14 construct: The full firefly (Photinus pyralis) luciferase gene was PCR amplified from pGL3 (Promega); GST (N, cleaved yes); made in house; host or cells: E. coli JM109
T14 sequence (P08659 whole entry F247A): as the sequence (P08659 whole entry I351A) above, with F247A, A351I counted along it
Protocol: as §1, §2

L286M + S347A luciferase = biological target: T15, L286M + S347A luciferase (Photinus pyralis, UniProt P08659, L286M/S347A); test: Bioluminescence emission scan; format: biochemical
T15 construct: The full firefly (Photinus pyralis) luciferase gene was PCR amplified from pGL3 (Promega); GST (N, cleaved yes); made in house; host or cells: E. coli JM109
T15 sequence (P08659 whole entry L286M/S347A): as the sequence (P08659 whole entry I351A) above, with L286M, S347A, A351I counted along it
Protocol: as §1, §2

F247S luciferase = biological target: T16, F247S luciferase (Photinus pyralis, UniProt P08659, F247S); test: Bioluminescence emission scan; format: biochemical
T16 construct: The full firefly (Photinus pyralis) luciferase gene was PCR amplified from pGL3 (Promega); GST (N, cleaved yes); made in house; host or cells: E. coli JM109
T16 sequence (P08659 whole entry F247S): as the sequence (P08659 whole entry I351A) above, with F247S, A351I counted along it
Protocol: as §1, §2

S347T luciferase = biological target: T17, S347T luciferase (Photinus pyralis, UniProt P08659, S347T); test: Bioluminescence emission scan; format: biochemical
T17 construct: The full firefly (Photinus pyralis) luciferase gene was PCR amplified from pGL3 (Promega); GST (N, cleaved yes); made in house; host or cells: E. coli JM109
T17 sequence (P08659 whole entry S347T): as the sequence (P08659 whole entry I351A) above, with S347T, A351I counted along it
Protocol: as §1, §2

L286M mutant luciferase = biological target: T18, L286M mutant luciferase (Photinus pyralis, UniProt P08659, L286M); test: Titration assay with purified protein; format: biochemical
T18 construct: The full firefly (Photinus pyralis) luciferase gene was PCR amplified from pGL3 (Promega); GST (N, cleaved yes); made in house; host or cells: E. coli JM109
T18 sequence (P08659 whole entry L286M): as the sequence (P08659 whole entry I351A) above, with L286M, A351I counted along it
Protocol: (§3) The PCR product was cloned into the BamH1 and NotI sites of pGEX6P-1 for bacterial expression. Mutant proteins were created using the Quickchange site-directed mutagenesis kit (Stratagene). Saturating mutagenesis was performed using the used the degenerate codon NNK at sites predicted to impact or alter substrate biding including F247, T251, L286, S347, R337, R218, Q338, Y340, A313, and I351 using the degenerate codon NNK.
(§4) Luminescence assays in 96-well plates were initiated by adding 30 μL 2× substrate in 20 mM Tris pH 7.6, 0.1 mM EDTA, 8 mM MgSO4, 4 mM ATP, and 1 mM TCEP to 30 μL of 20 nM purified luciferase in 20 mM Tris pH 7.6, 0.1 mM EDTA, 1 mM TCEP and 0.4 mg/mL BSA.

R218K mutant luciferase = biological target: T19, R218K mutant luciferase (Photinus pyralis, UniProt P08659, R218K); format: biochemical
T19 construct: The full firefly (Photinus pyralis) luciferase gene was PCR amplified from pGL3 (Promega); GST (N, cleaved yes); made in house; host or cells: E. coli JM109
T19 sequence (P08659 whole entry R218K): as the sequence (P08659 whole entry I351A) above, with R218K, A351I counted along it
Protocol: as §3, §4

S347A mutant luciferase = biological target: T20, S347A mutant luciferase (Photinus pyralis, UniProt P08659, S347A); format: biochemical; conditions: purified protein
T20 construct: The full firefly (Photinus pyralis) luciferase gene was PCR amplified from pGL3 (Promega); GST (N, cleaved yes); made in house; host or cells: E. coli JM109
T20 sequence (P08659 whole entry S347A): as the sequence (P08659 whole entry I351A) above, with S347A, A351I counted along it
Protocol: as §3, §4

[1] = biological target: T21, R218K mutant luciferase in live CHO cells (Photinus pyralis, UniProt P08659, R218K); test: Intact cell assay, transfected CHO cells; format: cell-based
T21 construct: The full firefly (Photinus pyralis) luciferase gene was PCR amplified from pGL3 (Promega); expressed in transfected cells; host or cells: CHO cells
T21 sequence (P08659 whole entry R218K): as the sequence (P08659 whole entry I351A) above, with R218K, A351I counted along it
Protocol: (§5) The mutants were cloned into the BamHI-Not I site of pcDNA 3.1 and transfected into CHO cells for live and lysed cell experiments. CHO-cell transfections were performed using Lipofectamine 2000 in 96-well white tissue culture treated plates (Costar) for intact cell assays, or 6-well plates for lysed cell assays. For intact cells, 0.075 μg DNA/well was transfected. For lysed cells, 2.25 μg DNA/well was transfected and one full 6-well plate was transfected for each mutant. Assays were performed in triplicate 24 hours post-transfection.
(§6) Transfected CHO cells were washed with HBSS and overlaid with 60 μL substrate in HBSS.

[2] = biological target: T22, T251S mutant luciferase in live CHO cells (Photinus pyralis, UniProt P08659, T251S); test: Intact cell assay, transfected CHO cells; format: cell-based
T22 construct: The full firefly (Photinus pyralis) luciferase gene was PCR amplified from pGL3 (Promega); expressed in transfected cells; host or cells: CHO cells
T22 sequence (P08659 whole entry T251S): as the sequence (P08659 whole entry I351A) above, with T251S, A351I counted along it
Protocol: as §5, §6

WT luciferase = biological target: T23, WT luciferase (Photinus pyralis, UniProt P08659); format: biochemical
T23 construct: The full firefly (Photinus pyralis) luciferase gene was PCR amplified from pGL3 (Promega); GST (N, cleaved yes); made in house; host or cells: E. coli JM109
T23 sequence (P08659 whole entry): as the sequence (P08659 whole entry I351A) above, with A351I counted along it
Protocol: (§7) Purified mutant luciferases were used in bioluminescence emission and burst kinetics scans. Each purified protein in 20 mM Tris pH 7.6, 0.1 mM EDTA, 1 mM TCEP and 0.4 mg/mL BSA was added to 2× substrate in 20 mM Tris pH 7.6, 0.1 mM EDTA, 8 mM MgSO4, 4 mM ATP, and 1 mM TCEP in a cuvette.
as §2

R218K + L342A luciferase = biological target: T24, R218K + L342A luciferase (Photinus pyralis, UniProt P08659, L342A/R218K); format: biochemical
T24 construct: The full firefly (Photinus pyralis) luciferase gene was PCR amplified from pGL3 (Promega); GST (N, cleaved yes); made in house; host or cells: E. coli JM109
T24 sequence (P08659 whole entry R218K/L342A): as the sequence (P08659 whole entry I351A) above, with R218K, L342A, A351I counted along it
Protocol: as §7, §2

[3] = 3 minutes post-substrate addition, read-out: Apparent Km

O=C(O)[C@H]1CSC(c2nc3cc4c(cc3s2)NCC4)=N1 [CycLuc1]
Wavelength at Max. Emission (I351A luciferase): 604 nm | Wavelength at Max. Emission (S347A luciferase): 597 nm | Wavelength at Max. Emission (T251Q luciferase): 612 nm | Wavelength at Max. Emission (L286M luciferase): 591 nm | Wavelength at Max. Emission (F247L L286M luciferase): 603 nm | Wavelength at Max. Emission (F247V luciferase): 603 nm | Maximum Emission Wavelength of Selected Substrate (R218K luciferase): 609 nm | Maximum Emission Wavelength of Selected Substrate (R218K luciferase; listed as Cyc1): 605 nm | Wavelength at Max. Emission (F247R luciferase): 609 nm | Maximum Emission Wavelength of Selected Substrate (L342A luciferase): 597 nm | Wavelength at Max. Emission (T251S L286M luciferase): 601 nm | Wavelength at Max. Emission (T251S luciferase): 602 nm | Wavelength at Max. Emission (T251N luciferase): 604 nm | Wavelength at Max. Emission (L286Y luciferase): 604 nm | Wavelength at Max. Emission (F247A luciferase): 605 nm | Maximum Emission Wavelength of Selected Substrate (L286M + S347A luciferase): 595 nm | Wavelength at Max. Emission (F247S luciferase): 607 nm | Wavelength at Max. Emission (S347T luciferase): 601 nm | Apparent Vmax (L286M mutant luciferase): 60 ± 0.7 ×10^−5 cps | Km (L286M mutant luciferase; [3]): 0.46 ± 0.03 µM | Apparent Vmax (R218K mutant luciferase; R218K luciferase, purified protein): 134 ± 1.9 ×10^−5 cps | Km (R218K mutant luciferase; R218K luciferase, purified protein, 3 minutes post-substrate addition, read-out: Apparent Km): 1.8 µM and 1.79 µM | maximal sustained light emission as % of that of D-luciferin with WT luciferase (R218K mutant luciferase; R218K mutant): 12.5% | improvement in the maximal sustained emission (R218K mutant luciferase; R218K mutant relative to wild-type luciferase): 14 fold | Apparent Vmax (S347A mutant luciferase): 135 ± 0.8 ×10^−5 cps | Km (S347A mutant luciferase; [3]): 2.68 ± 0.07 µM | substrate concentrations at which light output was superior to D-luciferin [1]: < 30 µM | substrate concentrations at which light output was superior to D-luciferin [2]: < 30 µM | Wavelength at Max. Emission (WT luciferase; Table 2): 601 nm | Maximum Emission Wavelength of Selected Substrate (WT luciferase; Table 3): 601 nm | Maximum Emission Wavelength of Selected Substrate (R218K + L342A luciferase): 604 nm
